Test results taken from patent EP0286418A1, “Anti-retroviral agents and delivery systems for the same” (priority 1987, dated 1988).

Molecular target: T1, HIV reverse transcriptase (Human immunodeficiency virus type 1 group M subtype B, UniProt P03367)
T1 construct: endogenous in cells; host or cells: U.1 (clone of promonocytic U937) and 8.E6 (clone of lymphoid A.301), chronically HIV-producing
Assay: reverse transcriptase assay on supernatant of chronically HIV-producing cells
Assay type: cell-based
Settings: for activity at 10 µg/mL: dose 10.0 micrograms/ml; for activity at 0.01 µg/mL: dose 0.01 micrograms/ml; for activity at 0.1 µg/mL: dose 0.1 micrograms/ml; for activity at 1 µg/mL: dose 1.0 micrograms/ml
Experimental: Liposomes were tested for toxic effect on two types of cells which chronically produce HIV. One clone (8.E6) was derived from the lymphoid cell line A.301; the other clone (U.1) was derived from the promonocytic line U937. Cells (1×10⁶/well) in RPMI medium with 10% fetal calf serum were pipetted into a flat-bottom 96-well microtiter plate. To each well was added 50 microliters of solution containing ddCTP-liposomes, empty liposomes, free ddCTP or phosphate buffered saline. Fifty microliters of phorbol myristyl acetate (PMA) was then added to each well to a final concentration of 10⁻⁹ M for stimulation, or else 50 microliters of saline was added for non-stimulated configurations. The plates were incubated at 37°C in 7% CO₂ for about 48 hours. 100 microliters of supernatant was then taken from each well to analyze for reverse transcriptase (RT) activity using polyadenylate and oligo-deoxythymidine. To perform the RT assay, 10 microliters of supernatant containing RT was added to a cocktail containing poly A, oligo dT (Pharmacia, Inc. Piscataway, N.J., USA) MgCl₂, and ³²P-dTTP (Amersham) and incubated for 2 hours at 37°C. Ten microliters of the cocktail was then spotted onto DE81 paper, dried, and washed in 1X saline sodium citrate buffer. The paper was then dried, cut and counted on a Beckman LS 7000 scintillation counter.

[1] = PMA-stimulated (1 nM) U.1 cells, normalized by average of empty liposome controls
[2] = U.1 cells, no PMA, relative to controls with no drug

Nc1ccn([C@H]2CC[C@@H](COP(=O)(O)OP(=O)(O)OP(=O)(O)O)O2)c(=O)n1 [ddCTP, 2ʹ,3ʹ-dideoxycytidine-5ʹ-triphosphate]
activity at 10 µg/mL (48 h, U.1 cells, no PMA, relative to controls with no drug): 69 ± 21%
activity at 0.01 µg/mL [1]: 84%
activity at 0.1 µg/mL [1]: 96%
activity at 1 µg/mL [1]: 75%
activity at 10 µg/mL [1]: 75%
activity at 0.01 µg/mL [2]: 67 ± 19%
activity at 0.1 µg/mL [2]: 80 ± 12%
activity at 1 µg/mL [2]: 61 ± 4%
